Reference: publication PMC8199001, “Design, Synthesis, and Biological Evaluation of Novel 6H-Benzo[c]chromen-6-one Derivatives as Potential Phosphodiesterase II Inhibitors” (International Journal of Molecular Sciences, 2021)
“Also recorded” adds a separate entry of the source.

Tests used:
PDE2 = PDE2 (Homo sapiens, UniProt O00408); assay: In vitro PDE2 enzymatic inhibition assay (Bio-cAMP substrate, AlphaScreen detection); format: biochemical;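 further: enzyme reaction run 0.5 h, then anti-cAMP acceptor and streptavidin donor beads added for 1 h in the dark before plate reading, compounds serially diluted from DMSO stock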
PDE2, sequence (O00408 whole entry): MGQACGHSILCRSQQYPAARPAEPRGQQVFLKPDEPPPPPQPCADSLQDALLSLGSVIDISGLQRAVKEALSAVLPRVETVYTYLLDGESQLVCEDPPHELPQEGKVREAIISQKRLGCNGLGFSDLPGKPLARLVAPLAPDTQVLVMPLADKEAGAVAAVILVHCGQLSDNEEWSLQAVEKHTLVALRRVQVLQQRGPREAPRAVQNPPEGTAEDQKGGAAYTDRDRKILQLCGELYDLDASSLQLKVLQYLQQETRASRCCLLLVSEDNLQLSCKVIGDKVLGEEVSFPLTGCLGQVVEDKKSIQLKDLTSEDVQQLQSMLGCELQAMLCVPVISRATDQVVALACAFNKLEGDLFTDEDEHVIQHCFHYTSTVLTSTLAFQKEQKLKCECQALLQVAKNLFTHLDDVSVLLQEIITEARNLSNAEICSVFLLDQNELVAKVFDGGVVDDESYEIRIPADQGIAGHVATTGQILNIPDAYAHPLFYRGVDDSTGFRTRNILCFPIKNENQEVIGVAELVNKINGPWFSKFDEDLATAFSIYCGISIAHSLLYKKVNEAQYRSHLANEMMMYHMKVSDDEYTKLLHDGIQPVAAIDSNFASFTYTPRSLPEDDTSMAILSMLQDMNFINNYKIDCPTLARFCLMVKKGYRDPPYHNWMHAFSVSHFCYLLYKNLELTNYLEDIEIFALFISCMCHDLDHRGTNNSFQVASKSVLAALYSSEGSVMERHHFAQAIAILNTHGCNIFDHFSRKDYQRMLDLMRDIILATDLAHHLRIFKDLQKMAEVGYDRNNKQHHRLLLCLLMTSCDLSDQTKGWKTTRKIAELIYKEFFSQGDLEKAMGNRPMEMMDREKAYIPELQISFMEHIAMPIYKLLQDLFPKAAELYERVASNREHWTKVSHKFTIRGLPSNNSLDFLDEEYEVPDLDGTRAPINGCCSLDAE
Method: Preparation of 1*Rection Buffer: we took 1 mL 10*Rection Buffer, added 9 mL ultra-pure water to swirl and mix well, and put it on ice; preparation of PDE2 solution: 210 μL of 1*Rection Buffer were added into a centrifuge tube, then 30 μL PDE2 were added, mixed well, equal to 8-times dilution, and placed on ice; preparation of compound solution with gradient concentration: DMSO was used as the solvent to prepare 10 mM compound solution, and then diluted with 1*Rection Buffer.
We took 2 μL of the diluted compound solution of each concentration into the microplate, added 4 μL PDE2 solution, numbered them A1–A9, added 2 μL 1*Rection Buffer and 4 μL PDE2 into A10, added 2 μL compound solution and 4 μL 1*Rection Buffer to A11, added 6 μL 1*Rection Buffer to A13, and ensured the three groups are parallel to each other. […] The reaction time was 0.5 h in the microporous plate thermostatic oscillator.
Anti-Camp Alohascreen Acceptor and Streptavidin Coated Donor Bead were purchased from Perkin Elmer Company according to response volume: 1* Immunoassay Buffer 549.32 μL and 3.70 μL anti-cAMP AlohaScreen Acceptor were collected under dark conditions. We took 1.98 μL Streptavidin coated Donor Bead, mixed well, added 15 μL mixture to each well after 1 h reaction, and reacted it in the dark for 1 h. After the reaction, we tested it with multilabel microplate detector.

HT-22 cells = assay: Protection of HT-22 cells against corticosterone-induced neurotoxicity (cell viability); format: cell-based
Text: Corticosterone can induce PDE2A, PDE3B, PDE4A, PDE4D, PDE10, and PDE11 expression in HT-22 cells, which results in significant cell lesion. Thus, corticosterone-induced HT-22 neurotoxicity was generally employed as classical cell model to screen PDE-inhibitors for curing neurodegenerative disease, such as AD and PD.
To determine whether compound 1f could promote neuron proliferation and protect HT-22 cells against corticosterone-induced neurotoxicity by PDE2 inhibition, the viability of HT-22 cells was measured in the presence of 100 μM corticosterone (positive control), corticosterone absence (control), and different concentrations of 1f.
We added 943 µL of DMSO solution to 8.2 mg of dexamethasone acetate to obtain a 20 mM stock solution, froze it at −20 °C, and diluted it to 2 mM with serum-containing medium before use. The test compound was dissolved in DMSO to obtain a 20 mM stock solution and stored at −20 °C. Diluted with serum-containing medium to a concentration of 2 × 100, 2 × 50, 2 × 25, 2 × 12.5, 2 × 6.25, 2 × 3.125 μM before use.
After resuscitation, HT-22 cells were cultured in DMEM medium (containing 10% FBS) at 37 °C with 5% CO2. After the cells grew to more than 80% cell fusion, we passaged and seeded the plate, and the density of each well should be 10,000 cells/100 μL/well and cultured for 24 h. After the cells adhered to the wall, drug intervention was given.
10 µL solution of 2 mM dexamethasone acetate was cultured at 37 °C for 30 min. 100 µL drug solution of 2 × 100, 2 × 50, 2 × 25, 2 × 12.5, 2 × 6.25, and 2 × 3.125 μM were added to make the final concentration of dexamethasone acetate 100 μM, and the final concentrations of the drug were 100, 50, 25, 12.5, 6.25, 3.125 μM. After preparation, it took another 24 h to continue the culture. […]
After the incubation, 50 µL of MTT was added to each well, and it needed another 4 h to incubate. […] Finally, the wavelength A 490 was measured. The data were expressed as mean ± sd (n = 5), and one-way anova analysis of variance was used for data statistics; p < 0.05 is defined as a significant difference.

With `CCCCOc1ccc2c(c1)oc(=O)c1ccccc12` [Compound 1f, 3-butoxy-6H-benzo[c]chromen-6-one] as the molecule, how does the “PDE2 inhibitory activity (result in words)” value (PDE2; enzyme level) read?
The value was “good PDE2 inhibitory activity”.

What about the IC50 (PDE2; in vitro, Bio-cAMP as substrate, mean of at least three experiments) of the same molecule?
The IC50 was 3.67 ± 0.47 µM.

What about the melting point of the same molecule?
The melting point was 53.6 to 55.5 °C.

What about the “Cell viability of HT-22 cells exposed to corticosterone (result in words)” value (HT-22 cells; 100 μM corticosterone, compound 6.25~25 μM, 24 h, dose-dependent) of the same molecule?
Its value is “protected cells against corticosterone (CORT)-induced cytotoxicity in a concentration-dependent manner; also recorded: significantly increased cell viability; also recorded: protect HT-22 cells from corticosterone-induced death”.

And the “Best concentration for increasing HT-22 cell viability” value (HT-22 cells; 100 μM corticosterone, p < 0.01)?
The value was 12.5 µM.

What about the “Protective effect on HT-22 cells compared with BAY 60-7550” value (HT-22 cells; comparison with BAY 60-7550 at 1.0 μM) of the same molecule?
The value was “similar; also recorded: comparable activity”.
